Measurements published in patent US20260257980A1, “NOVEL DIMETHYLCHALCONE DERIVATIVE” (CHUNG-ANG UNIVERSITY INDUSTRY-ACADEMIC COOPERATION …, priority 2022, published 2026).

Tested on: C2C12 myoblasts differentiated into myotubes
Experiment: Fatty acid oxidation rate (14CO2 from [1-14C] palmitate) in differentiated C2C12 myotubes
Assay type: cell-based
Settings: 10 μM DMC derivative, 24 hours, lysate with 0.2 mmol/L [1-14C] palmitate, 3 hours, positive control AICAR, control compounds CON1-CON6, FIG. 1
Experimental: To measure the fatty acid oxidation rate, C2C12 myoblasts were primarily cultured in DMEM supplemented with 10% fetal bovine serum, and then cultured for 5 days in DMEM supplemented with 2% horse serum in order to differentiate into myotubes. Then, the differentiated myotubes were treated with 10 μM of the DMC derivative, and cultured for 24 hours, and the cells were then harvested. Next, the harvested cells were lysed using a mitochondrial isolation buffer (250 mmol/L sucrose, 10 mmol/L Tris-HCl, and 1 mmol/L EDTA), treated with 0.2 mmol/L [1-^14C] palmitate, and then allowed to react for 3 hours. Next, the amount of ^14CO2 thus generated was measured, and the measured amount of ^14CO2 was corrected for the total amount of proteins to compare the fatty acid oxidation rate. In this case, AICAR was used as a positive control, and the compounds shown in Table 2 below were used as control compounds.

COCOc1c(C)c(O)c(C(=O)/C=C/c2cccc(F)c2)c(OC)c1C [Compound 1, 1-(2′-hydroxy-4′-(methoxymethoxy)-6′-methoxy-3′,5′-dimethylphenyl)-3-(3-fluorophenyl)-2-propen-1-one]
fatty acid oxidation rate (amount of 14CO2 generated, corrected for total protein): higher fatty acid oxidation effect than the derivatives (CON1, CON2)

COc1c(C)c(O)c(C)c(O)c1C(=O)/C=C/c1cccc(F)c1 [Compound 8, 1-(2′,4′-dihydroxy-6′-methoxy-3′,5′-dimethylphenyl)-3-(3-fluorophenyl)-2-propen-1-one]
fatty acid oxidation rate (amount of 14CO2 generated, corrected for total protein): higher fatty acid oxidation effect than the derivatives (CON3, CON4)

COc1c(C)c(OC)c(C(=O)/C=C/c2cccc(F)c2)c(OC)c1C [Compound 15, 1-(2′,4′,6′-trimethoxy-3′,5′-dimethylphenyl)-3-(3-fluorophenyl)-2-propen-1-one]
fatty acid oxidation rate (amount of 14CO2 generated, corrected for total protein): higher fatty acid oxidation effect than the derivatives (CON5, CON6)
